Where two headings read alike, the source gives them in different places.
System: HCT-116 cells
Assay: Cell growth test (CellTiter-Blue), HCT-116
Format: cell-based
Conditions: for cytotoxic effect relative to compound (1): 72 hours; for IC50: Homo sapiens, HCT-116, 48 h, 48 hours, read-out: IC50, cytotoxic effect
Procedure: The biological activity of compound (1), as well as that of its structural analogues, was studied in vitro on 7 different cancer cell lines: • HCT-116 (colorectal cancer) • U87 (glioblastoma) • K562 (myeloid leukemia) and K562 R • MDA-MB 231 (mammary adenocarcinoma) • MCF-7 (mammary adenocarcinoma) • A549 (pulmonary alveolar adenocarcinoma)
The cells selected for this study were incubated at 37° C. in the presence of compound (1) added in the culture medium at various concentrations and at various times. The set of experiments carried out made it possible to determine the degree of cytotoxicity of the compound tested (IC50), its capacity to induce cell death by apoptosis, in close dependence on extracellular superoxide anion for its activation. […]

| Structure (SMILES) | cytotoxic effect relative to compound (1) (HCT-116, normoxia) | IC50 (HCT-116, hypoxia (2% O2)) [µM] | IC50 (HCT-116, normoxia) [µM] |
| --- | --- | --- | --- |
| OCCCn1cc(-c2ccccc2)c(-c2ccc3c(c2)OCCO3)c1 [(2), 3-(3-(2,3-dihydrobenzo[b][1,4]dioxin-6-yl)-4-phenyl-1H-pyrrole-1-yl)propan-1-ol] | loss of cytotoxicity | – | – |
| OCCCn1cc(-c2ccccc2)c(-c2ccccc2)c1 [(3), 3-(3,4-Diphenyl-1H-pyrrol)propan-1-ol] | loss of cytotoxicity | – | – |
| CCOCCCn1cc(-c2ccccc2)c(-c2ccc(O)c(O)c2)c1 [(4), 4-(1-(3-Ethoxypropyl)-4-phenyl-1H-pyrrole-3-yl)benzene-1,2-diol] | does not substantially change the IC50 value | – | – |
| O=C1C=C(c2cn(CCCO)cc2-c2ccccc2)C=C(C2=C(O)C(c3cn(CCCO)cc3-c3ccccc3)=CC(O)C2O)C1=O (centres unmarked) [dimer MH+ 631] | – | 10 | 7.5 |

— US10233151B2, “Use of a novel 3-aryl-4-catechol-pyrrole-N-propanol compound and the derivatives thereof to treat cancer and diseases related to excessive angiogenesis” (Centre National de la Recherche Scientifique (CNRS), priority 2014, dated 2019)
